System: moderately differentiated intrahepatic cholangiocarcinoma
Experiment: Clinical case: treatment of a patient with metastatic intrahepatic cholangiocarcinoma, drugs chosen by Oncobox rating
Type: in vivo, human
Source text: The patient was diagnosed in October 2015 with the following symptoms: moderate body weight loss, pain in right hypochondrium, loss of appetite and asthenia, with 70% Karnovsky index. […] The tumour was not surgically excised due to advanced stage, several intrahepatic masses and lung metastasis.
At first, total RNA was isolated from tumour sample and used to measure expression levels for 2,163 genes with CustomArray Inc. (USA) equipment using the microarray hybridization method. These 2,163 genes participate in major human signalling pathways associated with cancer, and also act as the molecular targets of anti-cancer medicinal products. Liver samples without pathological characteristics were taken from healthy donors and used as normal tissue controls. Using the Oncobox algorithm, the rating of target drugs was formed according to the BES values obtained (Table 2).

Compound: CNC(=O)c1cc(Oc2ccc(NC(=O)Nc3ccc(Cl)c(C(F)(F)F)c3)cc2)ccn1 [Sorafenib]
- tumour status on MRI according to RECIST classification (Sorafenib from May 2016, MRI October 2016): stable disease
- period till progression (Sorafenib from May 2016, progressing tumour on MRI January 2017): about 6 months
- symptom change after treatment (after treatment with Sorafenib): pain elimination in right hypochondrium
- adverse effects (patient on Sorafenib): reddening, edema, pains in palms of the hands and bottoms of the feet
